Assay results taken from patent publication US20160200769A1, “Compound, Transitmycin, Effective Against Bacterial and Viral Pathogens” (INDIAN COUNCIL OF MEDICAL RESEARCH, priority 2013, published 2016).
*1 amine or outer side, *2 acyl side, *3 side chain or, on linkers, in order; H or OH if unused. Where a SMILES comes first, the peptide text is derived from it. Bridges are numbered along the chain shown (N, C = ends). Roman numbers before positions name the chains, in order. [ ]: non-standard residue; d: D form. Actinocin(1to9) = Cc1c2oc3c(C)ccc(C(=O)[*:2])c3nc-2c(C(=O)[*:1])c(N)c1=O; Pro(4-oxo) = O=C1CN[C@H](C(=O)O)C1; NMeV = CN[C@H](C(=O)O)C(C)C; Sar = CNCC(=O)O

Tested on: M. tuberculosis SHRE resistant
Assay: microbe, parasite or virus in culture
Type: cell-based
Details: Mycobacterium tuberculosis

With `Cc1c2oc3c(C)ccc(C(=O)N[C@@H]4C(=O)N[C@@H](C(C)C)C(=O)N5CCC[C@H]5C(=O)N(C)CC(=O)N(C)[C@@H](C(C)C)C(=O)O[C@@H]4C)c3nc-2c(C(=O)N[C@@H]2C(=O)N[C@@H](C(C)C)C(=O)N3CC(=O)C[C@H]3C(=O)N(C)CC(=O)N(C)[C@@H](C(C)C)C(=O)O[C@@H]2C)c(N)c1=O` [compound of formula (I), Transitmycin] (I: TV[Pro(4-oxo)][Sar][NMeV] / II: TVP[Sar][NMeV]; ester I:1-I:C, II:1-II:C; linker I:N-II:N via Actinocin(1to9)) the MIC was 6.25 µg/mL.
